The values that follow come from the RepoRT retention time repository.

This data set in a line: HILIC, HILICON iHILIC-(P) Classic, HILIC, PEEK, 100 × 2.1 mm, 5 µm, 40 °C, 0.2 mL/min, estimated dead time 1.1 min; A: water + 20 mM ammonium carbonate + 5 µM medronic acid; B: 10% water + 90% acetonitrile + 2 mM ammonium carbonate + 0.5 µM medronic acid; gradient (min/%B) 0/95 18/55 19/20 22/20 22.5/95 24/95 26/95. To be noted: stereoisomer not certain.

Regarding `O=C(CO)COP(=O)(O)O` [Triose phosphate], the LC retention time is 11.8 min.
`CC(=O)SCCNC(=O)CCNC(=O)C(O)C(C)(C)COP(=O)(O)OP(=O)(O)OCC1OC(n2cnc3c(N)ncnc32)C(O)C1OP(=O)(O)O` (centres undefined) [Acetyl-CoA]: the LC retention time is 9.93 min.
Take `O=P(O)(O)OC1OC(CO)C(O)C(O)C1O` (centres undefined) [Glucose-1-phosphate]: the LC retention time is 11.9 min.
As for `NC(CCC(=O)NC(CS)C(=O)NCC(=O)O)C(=O)O` (centres undefined) [GSH], the LC retention time was 10.2 min.
Under `O=P(O)(O)OCC(O)CO` (centres undefined) [Glycerol-3-phosphate] stands 10.8 min; under `NC(=O)CC(N)C(=O)O` (centres undefined) [Asparagine], 9.65 min; under `NC(=O)c1ccc[n+](C2OC(COP(=O)(O)OP(=O)(O)OCC3OC(n4cnc5c(N)ncnc54)C(O)C3O)C(O)C2O)c1` (centres undefined) [NAD], 11.1 min.
For `O=C(O)CC(O)(CC(=O)O)C(=O)O` [Citric acid], the LC retention time is 15.3 min.
Consider `O=P(O)(O)OCC1OC(O)C(O)C(O)C1O` (centres undefined) [Glucose-6-phosphate], for which the LC retention time was 13.9 min.
As to `O=C(O)CCC(=O)C(=O)O` [2-Oxoglutaric acid], the LC retention time is 12.7 min.
As for `O=C(O)CC(C(=O)O)C(O)C(=O)O` (centres undefined) [Isocitric acid], the LC retention time is 15.5 min.
With `Nc1ncnc2c1ncn2C1OC(COP(=O)(O)O)C(O)C1O` (centres undefined) [AMP] the figure was 10.1 min; with `O=C(O)CCC(=O)O` [Succinic Acid], 11.2 min.
With `O=C(CO)C(O)C(O)C(O)COP(=O)(O)O` (centres undefined) [Fructose 6-phosphate], the LC retention time is 11.9 min.
Under `O=C(O)CC(O)C(=O)O` (centres undefined) [Malic Acid] stands 11.9 min; under `Nc1ncnc2c1ncn2C1OC(COP(=O)(O)OP(=O)(O)OP(=O)(O)O)C(O)C1O` (centres undefined) [ATP], 13.3 min.
On to `NC(CCC(=O)NC(CSSCC(NC(=O)CCC(N)C(=O)O)C(=O)NCC(=O)O)C(=O)NCC(=O)O)C(=O)O` (centres undefined) [GSSG], for which the LC retention time was 14.7 min.
With `O=P(O)(O)OCC1OC(O)C(O)C1O` (centres undefined) [Pentose-phosphate], the LC retention time was 11.6 min.
With `NC(N)=NCCCC(N)C(=O)O` (centres undefined) [Arginine] the figure was 18.5 min; with `NCCCCC(N)C(=O)O` (centres undefined) [Lysine], 18.3 min.
With `CC(O)C(=O)O` (centres undefined) [Lactic Acid] the figure was 3.92 min; with `O=C(O)C=CC(=O)O` [Fumaric Acid], 12.4 min; with `NC(CC(=O)O)C(=O)O` (centres undefined) [Aspartic Acid], 10.2 min.
Turning to `CC(=O)NC1C(OP(=O)(O)OP(=O)(O)OCC2OC(n3ccc(=O)[nH]c3=O)C(O)C2O)OC(CO)C(O)C1O` (centres undefined) [UDP-GlcNAc], the LC retention time is 12 min.
Under `NC(=O)c1ccc[n+](C2OC(COP(=O)(O)OP(=O)(O)OCC3OC(n4cnc5c(N)ncnc54)C(OP(=O)(O)O)C3O)C(O)C2O)c1` (centres undefined) [NADP] stands 14.4 min.
Consider `Nc1ncnc2c1ncn2C1OC(COP(=O)(O)OP(=O)(O)O)C(O)C1O` (centres undefined) [ADP], for which the LC retention time was 11.9 min.
With `C=C(OP(=O)(O)O)C(=O)O` [PEP] the figure was 14.6 min; with `NC(=O)CCC(N)C(=O)O` (centres undefined) [Glutamine], 9.81 min; with `Nc1ncnc2c1ncn2C1OC(CO)C(O)C1O` (centres undefined) [Adenosine], 4.79 min.
Turning to `CC(C)(COP(=O)(O)OP(=O)(O)OCC1OC(n2cnc3c(N)ncnc32)C(O)C1OP(=O)(O)O)C(O)C(=O)NCCC(=O)NCCS` (centres undefined) [CoenzymeA], the LC retention time was 11.5 min.
On to `O=P(O)(O)OCC1OC(O)(COP(=O)(O)O)C(O)C1O` (centres undefined) [Fructose-1,6-bisphosphate], for which the LC retention time is 16.4 min.
In the case of `NC(CCC(=O)O)C(=O)O` (centres undefined) [Glutamic acid], the LC retention time was 9.7 min.
Regarding `NC(=O)C1=CN(C2OC(COP(=O)(O)OP(=O)(O)OCC3OC(n4cnc5c(N)ncnc54)C(O)C3O)C(O)C2O)C=CC1` (centres undefined) [NADH], the LC retention time was 9.08 min.
Under `NC(=O)C1=CN(C2OC(COP(=O)(O)OP(=O)(O)OCC3OC(n4cnc5c(N)ncnc54)C(OP(=O)(O)O)C3O)C(O)C2O)C=CC1` (centres undefined) [NADPH] stands 15.2 min.
